Results on 23 molecules are retold here after patent US8962627B2, “Oxime derivatives and their use as allosteric modulators of metabotropic glutamate receptors” (Prestwick Chemical, Inc., priority 2009, dated 2015).

In data set [1] the target is T1, human mGluR4 transiently over-expressed in HEK-293 cells (Homo sapiens, UniProt Q14833).
T1 construct: expressed in transfected cells; host or cells: HEK-293 cells, transient co-transfection by electroporation
Nature of the data set: Human mGluR4 positive allosteric modulator evaluation using Ca++ functional assay. The data set is classed as cell-based. Conditions: for EC50: HEK-293 cells co-transfected with hmGluR4 and chimeric G protein, EC10 glutamate, intracellular calcium (Fluo4AM), read-out: mean EC50 of agonist/positive allosteric modulator activity on mGluR4. The gist of the method:
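HEK-293 cells transiently co-transfected with hmGluR4 and a chimeric G protein, loaded with Fluo4AM; Ca2+ fluorescence read 485/525 nm. Compound alone read 60 s, then EC10 glutamate added and read 60 s more. EC50 fitted from 6–9 concentrations, duplicate, two independent runs.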

T1 sequence (Q14833 33-912): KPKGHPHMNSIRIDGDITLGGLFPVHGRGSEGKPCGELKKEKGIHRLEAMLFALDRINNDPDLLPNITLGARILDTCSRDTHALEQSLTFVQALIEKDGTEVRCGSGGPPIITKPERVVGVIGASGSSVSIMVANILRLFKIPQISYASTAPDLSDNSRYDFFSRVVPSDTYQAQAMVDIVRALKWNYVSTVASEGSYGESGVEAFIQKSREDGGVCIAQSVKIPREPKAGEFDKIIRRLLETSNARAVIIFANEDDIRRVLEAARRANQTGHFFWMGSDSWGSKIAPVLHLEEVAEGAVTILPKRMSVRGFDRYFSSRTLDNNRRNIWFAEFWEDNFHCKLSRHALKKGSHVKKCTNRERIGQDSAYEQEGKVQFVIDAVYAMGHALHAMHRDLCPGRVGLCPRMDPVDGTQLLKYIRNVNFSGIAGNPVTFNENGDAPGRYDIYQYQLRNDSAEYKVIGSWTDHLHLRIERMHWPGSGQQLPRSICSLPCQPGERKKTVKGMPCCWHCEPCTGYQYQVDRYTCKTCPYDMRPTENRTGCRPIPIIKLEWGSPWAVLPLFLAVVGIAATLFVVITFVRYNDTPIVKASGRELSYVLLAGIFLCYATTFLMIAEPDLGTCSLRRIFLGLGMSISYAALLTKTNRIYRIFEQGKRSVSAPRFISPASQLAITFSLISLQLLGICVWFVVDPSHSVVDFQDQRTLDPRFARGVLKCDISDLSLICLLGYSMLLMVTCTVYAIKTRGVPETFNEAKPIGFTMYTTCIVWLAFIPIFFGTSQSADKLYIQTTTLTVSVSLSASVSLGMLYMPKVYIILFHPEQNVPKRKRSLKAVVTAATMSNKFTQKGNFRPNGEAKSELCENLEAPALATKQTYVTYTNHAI

As to `Cl.ON=c1cc(-c2cc3sccc3cn2)oc2ccc(OCCCc3cccnc3)cc12` [Example 135, 6-(3-Pyridin-3-yl-propoxy)-2-thieno[3,2-c]pyridin-6-yl-chromen-4-one oxime, hydrochloride], the melting point is 252 to 254 °C. The EC50 in data set [1] was under 1000 nM.

Regarding `CC1CN(CCOc2ccc3oc(-c4cc5sccc5cn4)cc(=NO)c3c2)CC(C)O1.Cl` (stereo not shown) [Example 132, 6-[2-(2,6-Dimethyl-morpholin-4-yl)-ethoxy]-2-thieno[3,2-c]pyridin-6-yl-chromen-4-one oxime, hydrochloride], the melting point is 222 to 225 °C. Also, the EC50 in data set [1] is under 1000 nM.

In turn, `ON=c1cc(-c2cc3cccn3cn2)oc2ccc(OCCc3ccc(Cl)cc3)cc12` [Example 140, 6-[2-(4-Chloro-phenyl)-ethoxy]-2-pyrrolo[1,2-c]pyrimidin-3-yl-chromen-4-one oxime] showed a melting point of 247 to 249 °C. The EC50 in data set [1] was under 1000 nM.

For `COCCOc1ccc2oc(-c3cc4ccccc4cn3)cc(=NO)c2c1` (mixture of isomers) [Example 43, 2-isoquinolin-3-yl-6-(2-methoxy-ethoxy)-chromen-4-one oxime], the melting point is 198 to 204 °C. Moreover, the EC50 in data set [1] was under 1000 nM.

The molecule `COCCOc1cccc(C#Cc2ccc3c(=NO)cc(-c4cc5ccccc5cn4)oc3c2)c1` (mixture of isomers) [Example 53, 2-Isoquinolin-3-yl-7-[3-(2-methoxy-ethoxy)-phenylethynyl]-chromen-4-one oxime] came in with a melting point of 155 to 160 °C. In addition, the EC50 in data set [1] was under 1000 nM.

`Cl.ON=c1cc(-c2cc3cccn3cn2)oc2ccc(CCCCN3CCOCC3)cc12` [Example 102, 6-(4-morpholin-4-yl-butyl)-2-pyrrolo[1,2-c]pyrimidin-3-yl-chromen-4-one oxime, hydrochloride] showed a melting point of 180 to 185 °C. In addition, the EC50 in data set [1] is under 1000 nM.

Molecule `ON=c1cc(-c2cc3ccccc3cn2)oc2ccc(Br)cc12` (mixture of isomers) [Example 4, 6-bromo-2-isoquinolin-3-yl-chromen-4-one oxime] gave a melting point of 266 to 269 °C. Further, in data set [1], the EC50 was under 1000 nM.

With `CN(C)C1CCN(CCOc2ccc3oc(-c4cc5cccn5cn4)cc(=NO)c3c2)CC1.Cl.Cl` [Example 99, 6-[2-(4-dimethylamino-piperidin-1-yl)-ethoxy]-2-pyrrolo[1,2-c]pyrimidin-3-yl-chromen-4-one oxime, dihydrochloride], the melting point is > 255 °C (dec.). Further, in data set [1], the EC50 is under 1000 nM.

In turn, `CN(C)CCOc1ccc2oc(-c3cc4ccccc4cn3)cc(=NO)c2c1` (mixture of isomers) [Example 44, 6-(2-dimethylamino-ethoxy)-2-isoquinolin-3-yl-chromen-4-one oxime] registered a melting point of 203 to 205 °C. Besides, the EC50 in data set [1] is under 5000 nM.

As to `Cl.ON=c1cc(-c2cc3cccn3cn2)oc2ccc(OCCN3CCC(F)(F)C3)cc12` [Example 119, 6-[2-(3,3-difluoro-pyrrolidin-1-yl)-ethoxy]-2-pyrrolo[1,2-c]pyrimidin-3-yl-chromen-4-one oxime, hydrochloride], the melting point is > 230 °C (dec.). Also, the EC50 in data set [1] is under 1000 nM.

With `Cl.ON=c1cc(-c2cc3cccn3cn2)oc2ccc(OCCCN3CCOCC3)cc12` [Example 101, 6-(3-morpholin-4-yl-propoxy)-2-pyrrolo[1,2-c]pyrimidin-3-yl-chromen-4-one oxime, hydrochloride], the melting point is > 220 °C (dec.). The EC50 in data set [1] was under 1000 nM.

Turning to `ON=c1cc(-c2cc3ccsc3cn2)oc2ccccc12` (mixture of isomers) [Example 69, 2-Thieno[2,3-c]pyridin-5-yl-chromen-4-one oxime], the melting point lay in the range of 243 to 245 °C. Moreover, the EC50 in data set [1] was under 1000 nM.

Take `ON=c1cc(-c2ccc3ccccc3n2)oc2ccccc12` [Example 79, 2-Quinolin-2-yl-chromen-4-one oxime]: the melting point was in the range of 232 to 235 °C. In data set [1] (up to 100 μM), the “PAM activity on mGluR4” value is recorded as “no PAM activity”.

The molecule `COc1ccc2oc(-c3cc4ccccc4cn3)cc(=NO)c2c1` (mixture of isomers) [Example 42, 2-isoquinolin-3-yl-6-methoxy-chromen-4-one oxime] returned a melting point of 250 to 255 °C. For the same molecule, the EC50 in data set [1] was under 5000 nM.

Turning to `Cl.ON=c1cc(-c2cc3sccc3cn2)oc2ccc(OCCN3CCOCC3)cc12` [Example 127, 6-(2-Morpholin-4-yl-ethoxy)-2-thieno[3,2-c]pyridin-6-yl-chromen-4-one oxime, hydrochloride], the melting point was > 230 °C (dec.). Also, in data set [1], the EC50 is under 1000 nM.

Molecule `ON=c1cc(-c2cc3cccn3cn2)oc2ccc(OCCOc3ccncc3)cc12` [Example 147, 6-[2-(Pyridin-4-yloxy)-ethoxy]-2-pyrrolo[1,2-c]pyrimidin-3-yl-chromen-4-one oxime] showed a melting point of 198 to 200 °C. Also, the EC50 in data set [1] was under 1000 nM.

As to `ON=c1cc(-c2cc3sccc3cn2)oc2ccccc12` [Example 70, 2-Thieno[3,2-c]pyridin-6-yl-chromen-4-one oxime], the melting point was in the range of 272 to 275 °C. Also, the EC50 in data set [1] is under 1000 nM.

With `CN(C(=O)COc1ccc2oc(-c3cc4cccn4cn3)cc(=NO)c2c1)c1ccc(F)cc1` [Example 151, N-(4-Fluoro-phenyl)-2-{4-hydroxyimino-2-pyrrolo[1,2-c]pyrimidin-3-yl-4H-chromen-6-yloxy}-N-methyl-acetamide], the melting point is 268 to 272 °C. In data set [1], the EC50 is under 5000 nM.

For `ON=c1cc(-c2cc3cccn3cn2)oc2ccc(OCCc3ccccc3)cc12` [Example 146, 6-Phenethyloxy-2-pyrrolo[1,2-c]pyrimidin-3-yl-chromen-4-one oxime], the melting point turned out to be 210 °C. In addition, the EC50 in data set [1] was under 1000 nM.

`ON=c1cc(-c2cc3ccccc3cn2)oc2ccc(O)cc12` (mixture of isomers) [Example 41, 6-hydroxy-2-isoquinolin-3-yl-chromen-4-one oxime]: the melting point was in the range of 255 to 260 °C. In data set [1], the EC50 is under 5000 nM.

In the case of `Cl.ON=c1cc(-c2cn3cccc3cn2)oc2ccc(OCCN3CCOCC3)cc12` [Example 123, 6-(2-Morpholin-4-yl-ethoxy)-2-(8aH-pyrrolo[1,2-a]pyrazin-3-yl)-chromen-4-one oxime, hydrochloride], the melting point is > 250 °C (dec.). For the same molecule, the EC50 in data set [1] was under 1000 nM.

For `COCCN(CCOC)CCOc1ccc2oc(-c3cc4cccn4cn3)cc(=NO)c2c1.Cl` [Example 104, 6-(2-[bis-(2-methoxy-ethyl)-amino]-ethoxy)-2-pyrrolo[1,2-c]pyrimidin-3-yl-chromen-4-one oxime, hydrochloride], the melting point fell in the range of 155 to 160 °C. Besides, in data set [1], the EC50 is under 1000 nM.

Take `Cl.ON=c1cc(-c2cc3sccc3cn2)oc2ccc(OCCn3ccnc3)cc12` [Example 129, 6-(2-imidazol-1-yl-ethoxy)2-thieno[3,2-c]pyridin-6-yl-chromen-4-one oxime, hydrochloride]: the melting point lay in the range of 218 to 220 °C. The EC50 in data set [1] was under 1000 nM.
